Experiment [1] has as its system 442 kinases, including 400 distinct parental kinases plus mutants. The experiment in a line: KINOMEscan assay (Ambit Biosciences). Format: binding. To be noted: tested at 10 μM. The text has this:
Kinase assay system #1. The KINOMEscan™ assay (Ambit Biosciences). This assay evaluates 442 kinases, including 400 distinct parental kinases plus mutants known to alter activity or responsiveness. It does so in the context of an assay that measures the ability of putative inhibitors to inhibit binding of bacterial purified kinase to immobilized phospho-acceptor protein substrate. This approach has been successfully to identify kinase interactions of several small molecule kinase inhibitors (Fabian, M. A. et al., Nat Biotechnol 23, 329-36 (2005); and Karaman, M. W. et al., Nat Biotechnol 26, 127-32 (2008)). KBU2046 was tested at 10 μM. […] There were two initial false positives (for a false positive rate of 0.4%), that were subsequently found to be negative in a dedicated follow up analysis. Specific and important negative findings include MKK4, p38 MAPK (α, β, γ and δ isoforms) and RAF1. Conclusions: there was no evidence that KBU2046 inhibits kinase function by competing for phospho-acceptor binding.

The subject of experiment [2] is phosphorylated Ser226 on HSP90β. As to the kind of experiment: PhosphoScan LC-MS/MS proteomic analysis in PC3 cells. Format: cell-based, human. To be noted: 10 μM 3 days, then TGFβ. The procedure:
The 83 kDa protein was identified by pretreating PC3 cells with KBU2046 or vehicle control, treating with TGFβ and performing LC-MS/MS analysis on proteins pulled down by the KinomeView® antibody used in FIG. 4a. Resultant data were analyzed with the SEQUEST/Sorcerer data analysis suite, and proteins further selected based upon predetermined parameters (FIG. 19).
Phospho-proteomic Analysis. The Kinoview™ and PhosphoScan™ assays were performed by Cell Signaling Technology Inc.
Proteins bound in this manner were analyzed in replicates of N=2 using PhosphoScan™ technology. This identified 483 phosphopeptide assignments from 306 parent proteins, with a mean false discovery rate of 0.30% (estimated via Sorcerer search of composite human database of forward and reverse protein entries). Proteins were considered if the average values for treatment and control were each 3 times that of background. Further, it was required that each of the N=2 replicate values (used to calculate the average) to be >/=2.5 fold above background. Interest was focused on which protein decreased with KBU2046, and it was required that the decrease be >/=2.5 fold, compared to control. According to these parameters, there were 19 phospho-proteins whose expression decreased in cells treated with KBU2046, compared to control. These are depicted herein. […]

The subject of experiment [3] is protein phosphorylation in PC3-M and PC3 cells. The experiment in a line: KinomeView phospho-motif antibody screen. The class given is cell-based, human. To be noted: 10 μM, 3 days, ±TGFβ. The text has this: Seeking to identify KBU2046's biological target(s), alternative methods were pursued. The KinomeView® panel of antibodies (Cell Signaling Technology, Inc.) detect established protein phosphorylation motifs, and were used to probe for KBU2046-induced changes in protein phosphorylation (FIG. 4a and FIG. 17). Phosphoprotein changes that met the following criteria were prioritized: were induced in cells in vitro as well as in tumors of treated mice (from FIG. 2a), that counteracted transforming growth factor β (TGFβ)-induced effects, and that were reproducible. TGFβ is ubiquitous in vivo, is known to increase PCa cell invasion (Huang, X. et al., Cancer Research 65, 3470-8 (2005)), and KBU2046's anti-invasion efficacy remains in spite of TGFβ-stimulated increases in cell invasion (FIG. 18). Genistein was evaluated under identical treatment conditions for comparison. […] In tumors of treated animals KBU2046 had this same effect on this 83 kDa protein band (green arrow in FIG. 17a). The high molecular selectivity of KBU2046 was further supported by its failure to inhibit over 400 different protein kinases and 20 phosphatases examined, in three different in vitro assay systems (see, Example 1).
Phospho-proteomic Analysis. The Kinoview™ and PhosphoScan™ assays were performed by Cell Signaling Technology Inc. […]

Experiment [4] concerns human prostate cells (PC3, PC3-M, 1532NPTX, 1542NPTX, 1532CPTX, 1542CPTX). As to the kind of experiment: Boyden chamber cell invasion assay, human prostate cells. Format: cell-based. To be noted: 10 μM, 3 days; normal, primary and metastatic PCa cells. The text has this:
FIG. 1a is a schematic flow of probe synthesis and development strategy. […] Values are mean±SEM of a single experiment in replicates of N=4, with similar findings in multiple separate experiments (also N=4). […] Values are mean±SEM of a single experiment in replicates of N=24, with similar findings in a separate experiment (also N=24). *Denotes Student's t test P value <0.05, compared to controls. […] Values are mean±SEM from N>2 separate experiments, each in replicates of N=3. […] Values are the mean±SD number of total, CFU-GM, CFU-GEMM or BFU-E colonies at 14 days after treatment with KBU2046, from a single experiment in replicates of N=2. […] Values are the mean±SD of a single experiment, with similar results seen in a separate experiment, both in replicates of N=2.
Cell Invasion Assays. Boyden chamber cell invasion assays were performed as previously described^9, using either denatured collagen (BD Biosciences) or type IV human collagen (BD Biosciences), with the experiments repeated, each in N=4 replicates. In some experiments, as indicated, cells were transfected with an expression plasmid, using Lipofectamine 2000™ (Invitrogen), or with siRNA, using DharmaFect Duo (Thermo Scientific) and co-transfected with β-Galactosidase (Plasmid pCMV⋅SPORT-βgal; Life Technology).

SMILES strings stand for the structures.

Regarding `O=C1c2ccccc2OCC1c1ccc(F)cc1` (racemic) [KBU2046, (±)-3(4-fluorophenyl)chroman-4-one], in experiment [1], the “inhibition of kinase binding to immobilized phospho-acceptor substrate” value is reported as “completely negative”. Further, the “decrease of abundance of phosphorylated Ser226 on HSP90β” value in experiment [2] stood at 6.6 fold. The “changes in protein phosphorylation” value in experiment [3] is given as “induced a single change that met the pre-specified criteria”. Moreover, the “inhibition of cell invasion” value in experiment [4] is listed as “inhibits cell invasion with efficacy equal-to-or-greater-than that of genistein”.

Source of the values: patent publication US20210293825A1, “METHODS FOR PRECISION THERAPEUTIC TARGETING OF HUMAN CANCER CELL MOTILITY AND KITS THEREOF” (UNITED STATES GOVERNMENT AS REPRESENTED BY THE DEPARTMENT …, priority 2018, published 2021).
